From US20140242093A1, “METHODS AND COMPOSITIONS FOR MODULATING THE INNATE IMMUNE RESPONSE AND/OR MYOGENESIS IN A MAMMALIAN SUBJECT” (FRED HUTCHINSON CANCER RESEARCH CENTER, priority 2011, published 2014)

Test system: control human primary myoblasts
Test: Expression microarray of primary myoblasts transduced with lentivirus carrying DUX4-fl, DUX4-s or GFP
Procedure: Primary human myoblasts were collected and cultured as previously described (Snider et al., 2010). Primary myoblasts were maintained at or below 70% confluency for proliferation. For differentiation, cells were allowed to reach 95-100% confluency in growth medium. Once confluency was reached, the cells were changed to differentiation medium (F10 media supplemented with 1% horse serum, 10 μg/mL insulin, and 10 μg/mL transferrin, penicillin/streptomycin) and maintained for 4 days. Human RD cells were grown in DMEM in 10% bovine calf serum (Hyclone) and penicillin/streptomycin. The primary myoblasts were transduced with lentivirus carrying DUX-fl, DUX4- or GFP (MOI=15).
Expression microarrays were performed on the transduced cells at 24 hours after transduction as follows. […] Samples were analyzed by Illumina Human Whole Genome microarrays. Probe intensities were corrected, normalized, and summarized by the Lumi package of Bioconductor (Du et al., 2008). Differentially expressed genes were identified by the LIMMA package of Bioconductor (Wettenhall and Smyth, 2004). Gene set enrichment analysis (GSEA) was performed using the Bioconductor GOstats package (Falcon and Gentleman, 2007).

Question: Which “fc of ATRIP (expression array)” value (Refseq NM_032166.2) does the source give for “DUX4-fl: full-length DUX4 protein (SEQ ID NO:110), expressed from lentiviral or pCS2 vectors or in vitro translated” here?
Answer: −1.006

Question: What about the CEP78 expression fc (Refseq NM_032171.1) of the same substance?
Answer: 2.035

Question: And the SON expression fc (Refseq NM_032195.1)?
Answer: 2.055

Question: And the LARP1B expression fc (Refseq NM_032239.2)?
Answer: 1.858

Question: What about the MED10 expression fc (Refseq NM_032286.2) of the same substance?
Answer: 1.965

Question: What about the C1orf57 fc (Refseq NM_032324.1) of the same substance?
Answer: −1.117

Question: And the ELOF1 expression fc (Refseq NM_032377.3)?
Answer: 1.884

Question: And the “fc of C15orf48 (expression array)” value (Refseq NM_032413.2)?
Answer: −0.8681

Question: And the PKIB expression fc (Refseq NM_032471.4)?
Answer: 1.858

Question: And the KBTBD8 expression fc (Refseq NM_032505.1)?
Answer: 3.076

Question: And the TMEM185A expression fc (Refseq NM_032508.1)?
Answer: 2.292

Question: What about the PARD6G fc (Refseq NM_032510.3) of the same substance?
Answer: −1.161

Question: What about the “fc of EBPL (expression array)” value (Refseq NM_032565.2) of the same substance?
Answer: −1.006

Question: What about the “fc of ACCS (expression array)” value (Refseq NM_032592.3) of the same substance?
Answer: −1.038

Question: And the RBBP6 expression fc (Refseq NM_032626.5)?
Answer: 1.986

Question: And the SPRYD5 expression fc (Refseq NM_032681.1)?
Answer: 8.045

Question: What about the “fc of SPPL2A (expression array)” value (Refseq NM_032802.3) of the same substance?
Answer: −0.7524

Question: And the ATOH8 expression fc (Refseq NM_032827.4, cultured human skeletal muscle)?
Answer: −2.073

Question: And the CORO6 fc (Refseq NM_032854.2)?
Answer: −1.12

Question: What about the “fc of TIGD5 (expression array)” value (Refseq NM_032862.2) of the same substance?
Answer: −1.003

Question: And the CASP6 expression fc (Refseq NM_032992.2)?
Answer: 2.035

Question: And the TRIM5 fc (Refseq NM_033034.1)?
Answer: −1.114

Question: What about the EPSTI1 expression fc (Refseq NM_033255.2, cultured human skeletal muscle) of the same substance?
Answer: −4.12

Question: And the TP53INP1 fc (Refseq NM_033285.2)?
Answer: −1.138

Question: And the CASP1 fc (Refseq NM_033294.2)?
Answer: −1.17

Question: What about the PRIC285 expression fc (Refseq NM_033405.2, cultured human skeletal muscle) of the same substance?
Answer: −2.608

Question: What about the ZNF622 expression fc (Refseq NM_033414.2) of the same substance?
Answer: 2.406

Question: And the PANX2 expression fc (Refseq NM_052839.2)?
Answer: 3.831

Question: What about the “fc of C20orf72 (expression array)” value (Refseq NM_052865.2) of the same substance?
Answer: −1.04

Question: And the “fc of GBP5 (expression array)” value (Refseq NM_052942.2)?
Answer: −0.9094

Question: What about the “fc of ALPK2 (expression array)” value (Refseq NM_052947.3) of the same substance?
Answer: −0.3826

Question: And the “fc of ANTXR1 (expression array)” value (Refseq NM_053034.1)?
Answer: −1.013

Question: And the AP1S1 fc (Refseq NM_057089.2)?
Answer: −1.095

Question: And the CCNE1 expression fc (Refseq NM_057182.1)?
Answer: 1.863

Question: And the FBXO32 fc (Refseq NM_058229.2)?
Answer: −1.177

Question: And the CCNT2 expression fc (Refseq NM_058241.1)?
Answer: 1.876

Question: What about the SLC44A1 fc (Refseq NM_080546.3) of the same substance?
Answer: −1.132

Question: And the “fc of C2orf28 (expression array)” value (Refseq NM_080592.2)?
Answer: −1.029

Question: What about the DYNLL2 expression fc (Refseq NM_080677.1) of the same substance?
Answer: 2.736

Question: What about the HOM-TES-103 fc (Refseq NM_080731.1) of the same substance?
Answer: −1.065

Question: What about the ZNF280A expression fc (Refseq NM_080740.3) of the same substance?
Answer: 3.798

Question: And the C20orf127 expression fc (Refseq NM_080757.1, cultured human skeletal muscle)?
Answer: −2.098

Question: And the “fc of PTPRA (expression array)” value (Refseq NM_080841.2)?
Answer: −1.02

Question: What about the ASB5 fc (Refseq NM_080874.2) of the same substance?
Answer: −1.135

Question: What about the APBB3 expression fc (Refseq NM_133172.2, cultured human skeletal muscle) of the same substance?
Answer: −1.994

Question: What about the “fc of DIS3L (expression array)” value (Refseq NM_133375.2) of the same substance?
Answer: −1.005

Question: And the C6orf117 expression fc (Refseq NM_138409.1)?
Answer: 2.446

Question: What about the “fc of SDSL (expression array)” value (Refseq NM_138432.2) of the same substance?
Answer: −1.011

Question: What about the TRIM43 expression fc (Refseq NM_138800.1) of the same substance?
Answer: 5.806

Question: And the CMBL expression fc (Refseq NM_138809.3, cultured human skeletal muscle)?
Answer: −1.992

Question: And the “fc of FGD4 (expression array)” value (Refseq NM_139241.1)?
Answer: −0.5592

Question: What about the ANGPTL4 fc (Refseq NM_139314.1) of the same substance?
Answer: −1.064

Question: What about the MBD3L2 expression fc (Refseq NM_144614.2) of the same substance?
Answer: 7.623

Question: What about the JSRP1 fc (Refseq NM_144616.2) of the same substance?
Answer: −1.175

Question: And the “fc of PPM1M (expression array)” value (Refseq NM_144641.1)?
Answer: −1.015

Question: And the “fc of C1orf58 (expression array)” value (Refseq NM_144695.2)?
Answer: −0.4075

Question: What about the FXYD5 fc (Refseq NM_144779.1) of the same substance?
Answer: −1.065

Question: What about the Cllorf82 expression fc (Refseq NM_145018.2) of the same substance?
Answer: 2.531

Question: And the CDC42EP5 fc (Refseq NM_145057.2)?
Answer: −1.137

Question: And the SPATA18 expression fc (Refseq NM_145263.2, cultured human skeletal muscle)?
Answer: −1.989

Question: What about the MOBKL2C fc (Refseq NM_145279.4) of the same substance?
Answer: −1.106

Question: What about the ZNF296 expression fc (Refseq NM_145288.1) of the same substance?
Answer: 5.536

Question: And the “fc of MGST1 (expression array)” value (Refseq NM_145792.1)?
Answer: −1.032

Question: And the OSBPL7 fc (Refseq NM_145798.2)?
Answer: −1.145

Question: And the TP53I3 expression fc (Refseq NM_147184.1, cultured human skeletal muscle)?
Answer: −1.961

Question: What about the “fc of GJD3 (expression array)” value (Refseq NM_152219.3) of the same substance?
Answer: −1.028

Question: And the ACPL2 fc (Refseq NM_152282.3)?
Answer: −1.079

Question: What about the “fc of C1orf131 (expression array)” value (Refseq NM_152379.2) of the same substance?
Answer: −1.023

Question: And the “fc of PPM1K (expression array)” value (Refseq NM_152542.2)?
Answer: −0.146

Question: And the C12orf50 expression fc (Refseq NM_152589.1)?
Answer: 4.522

Question: And the C1orf55 expression fc (Refseq NM_152608.3)?
Answer: 2.049

Question: And the MLKL expression fc (Refseq NM_152649.1, cultured human skeletal muscle)?
Answer: −2.992

Question: What about the ZSCAN4 expression fc (Refseq NM_152677.1) of the same substance?
Answer: 8.322

Question: And the SAMD9L expression fc (Refseq NM_152703.2, cultured human skeletal muscle)?
Answer: −2.532

Question: What about the VWCE expression fc (Refseq NM_152718.2, cultured human skeletal muscle) of the same substance?
Answer: −3.317

Question: What about the “fc of D2HGDH (expression array)” value (Refseq NM_152783.3) of the same substance?
Answer: −1.031

Question: What about the FAS fc (Refseq NM_152877.1) of the same substance?
Answer: −1.133

Question: What about the APCDD1 expression fc (Refseq NM_153000.3, cultured human skeletal muscle) of the same substance?
Answer: −1.894

Question: What about the PMP22 fc (Refseq NM_153321.1) of the same substance?
Answer: −1.103

Question: And the SLC2A14 expression fc (Refseq NM_153449.2)?
Answer: 2.374

Question: What about the CYBASC3 expression fc (Refseq NM_153611.3, cultured human skeletal muscle) of the same substance?
Answer: −1.945
